Experimental findings from patent US20240308995A1, “O-GLYCOPROTEIN-2-ACETAMIDO-2-DEOXY-3-D-GLUCOPYRANOSIDASE INHIBITORS” (BIOGEN MA INC., priority 2018, published 2024) are described below.

One data set deals with P-gp (MDR1). Nature of the data set: MDR1-MDCK Efflux Ratio Assay. The data set is classed as in vitro ADME. The following applies: dog, read-out: MDR1-MDCK Efflux Ratio (B-A/A-B). How it is done:
MDR1-MDCK cell monolayers were grown to confluence on microporous polyester membranes in 96-well Corning insert plates. The permeability assay buffer was Hanks' Balanced Salt Solution containing 10 mM HEPES at pH of 7.4. Loperamide (1 μM) was used as a positive control P-gp substrate. Propranolol and Bestatin (1 μM) were used as high and low permeability comparators, respectively. Test compounds or positive control P-gp substrate/permeability comprators were added to respective apical and basolateral chambers for bidirectional assessment of permeability. Receiver buffer (transport buffer supplemented with 1% bovine serum albumin) was added to respective receiver chambers. MDR1-MDCK cells were incubated with test compounds at 37° C. with 5% CO2 for 2 hr. Samples were collected from the donor chamber at both 0 and 120 minutes, and from the receiver chamber at 120 minutes. Test and control compound concentrations were determined using LC-MS/MS analysis. Each determination was performed in triplicate. The apparent permeability (Papp), efflux ratio and mass balance (percent recovery) were calculated as follows: [formula] where: dCr/dt is the cumulative concentration in the receiver compartment versus time in μM s^−1 Vr is the volume of the receiver compartment in cm^3 Vd is the volume of the donor compartment in cm^3 A is the area of the insert (0.143 cm^2 for 96-well insert) CE is the estimated experimental concentration (Time=0) of the dosing solution Cr^final is the concentration of the receiver at the end of the incubation period Cd^final is the concentration of the donor at the end of the incubation period.

Data set [1] addresses OGA (S400 O-GLCNAC), HEK-293T cells transfected with Tau-V5 (Homo sapiens (Human), UniProt O60502). The experiment in a line: Cellular OGA-Tau MSD Assay. The data set is classed as cell-based. As for the experimental part: HEK-293T cells were transfected with […] and Tau-V5 plasmids using Lipofectamine and grown overnight. Next day, the cells were collected and re-plated at 1×10^5 cells per well in 96 well plates. Cells were incubated for 4 hr at 37° C., before compounds were added at 1 uM, with 3-fold dilutions in a 10-point titration. Cell plates were incubated with compounds overnight at 37° C. The next day media was removed from wells by gentle aspiration and 120 ul of 1× Cell Lysis buffer mixed with protease and phosphatase cocktail added to each well. A freeze thaw was performed at -80° C., then mixed before transferring 50 ul to MSD plates coated with V5-tag antibody to capture Tau. MSD Plates were incubated overnight at 4° C., on a plate shaker. The following day, plates were washed and incubated with Tau-[…]-GlcNAc antibody for 2 hr and then developed with rabbit Sulfo-tag antibody. Final read out was carried out on an MSD 600 reader. The data was analyzed using Graph Pad or Genedata, the data was normalized and % activity versus log of compound concentration was plotted. The IC50 values were obtained from a 4 parameter fit.

Data set [2] in a line: Rat Liver Microsome Stability Assay. It counts as in vitro ADME. (Liver microsomes are a subcellular fraction often used to study metabolism.)
Data set [3] addresses Recombinant full length human OGA enzyme (Homo sapiens (Human), UniProt O60502). Nature of the data set: OGA Enzyme Inhibition Biochemical Assay. The following applies: 1 nM OGA, 100 μM 4-MUGlcNAc, pH 6.4. As for the experimental part:
Recombinant full length human OGA enzyme was purchased from Origene. 4-MUGlcNAc substrate was purchased from Sigma. All other reagents were purchased from Sigma or Fisher. Assay buffer consists of the McIlvaine buffer system, pH 6.4 (0.2M Na2HPO4 mixed with 0.1M citric acid) and 0.01% BSA. […] Reactions were incubated for 90 minutes at room temperature and quenched with 40 μl of 3M glycine, pH 10 and read on a Perkin Elmer Envision plate reader (Ex: 355 nm/Em: 460 nm). Compounds were tested with a 10-point dose-response starting from 20 μM with a 4-fold dilution. Data was fit using GraphPad Prism using a 4-parameter fit with variable slope.

[4] abbreviates: MDCK-MDR1, pH 7.4, MDR1-MDCK cells, 2 hr, pH 7.4.
[5] abbreviates: HEK-293T cells, Tau-S400-GlcNAc MSD readout.
The mark [6] stands for this setting: rat liver microsomes, 1 uM compound.
Setting [7] is: MDCK-MDR1, pH 7.4, repeated assay, value marked with asterisk (*).
The mark [8] stands for this setting: repeated assay, value marked with asterisk (*).

Usually IC50 stands for the point on the concentration scale where inhibition reaches its midpoint.

Where two headings read alike, the source gives them in different places. Marks after values point to notes of the source that are not given here.

Chain of Recombinant full length human OGA enzyme (O60502 whole entry): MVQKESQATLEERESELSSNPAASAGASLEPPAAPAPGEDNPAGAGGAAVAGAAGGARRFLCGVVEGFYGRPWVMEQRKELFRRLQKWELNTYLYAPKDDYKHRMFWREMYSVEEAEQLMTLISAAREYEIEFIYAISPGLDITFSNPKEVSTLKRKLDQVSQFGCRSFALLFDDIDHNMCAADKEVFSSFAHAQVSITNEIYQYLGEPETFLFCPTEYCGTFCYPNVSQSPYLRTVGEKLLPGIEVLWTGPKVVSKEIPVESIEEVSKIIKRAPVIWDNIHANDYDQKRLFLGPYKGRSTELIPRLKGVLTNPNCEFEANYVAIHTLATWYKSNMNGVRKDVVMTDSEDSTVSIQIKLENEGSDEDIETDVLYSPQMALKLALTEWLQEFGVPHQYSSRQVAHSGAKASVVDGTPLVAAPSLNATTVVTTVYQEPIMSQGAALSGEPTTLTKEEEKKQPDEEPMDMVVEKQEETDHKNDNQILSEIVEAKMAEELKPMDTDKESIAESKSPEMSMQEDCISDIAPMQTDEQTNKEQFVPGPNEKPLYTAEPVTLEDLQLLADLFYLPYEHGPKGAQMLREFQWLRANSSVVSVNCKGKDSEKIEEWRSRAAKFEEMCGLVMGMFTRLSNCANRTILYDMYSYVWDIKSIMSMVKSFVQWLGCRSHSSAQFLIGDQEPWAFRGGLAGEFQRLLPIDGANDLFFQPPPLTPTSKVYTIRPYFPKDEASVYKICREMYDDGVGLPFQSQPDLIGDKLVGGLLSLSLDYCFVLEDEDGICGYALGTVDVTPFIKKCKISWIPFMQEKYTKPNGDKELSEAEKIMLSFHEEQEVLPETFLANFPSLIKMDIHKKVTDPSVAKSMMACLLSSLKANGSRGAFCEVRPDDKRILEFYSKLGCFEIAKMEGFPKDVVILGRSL
Chain of OGA (S400 O-GLCNAC), HEK-293T cells transfected with Tau-V5 (O60502 whole entry): as above

For `CC(=O)Nc1nc(F)c(CN2C[C@H](Oc3cc(C)nc(C)c3)C[C@H]2C)s1` (stereo in doubt) [Example 1-51, N-(5-(((2R,4R)-4-((2,6-dimethylpyridin-4-yl)oxy)-2-methylpyrrololidin-1-yl)methyl)-4-fluorothiazol-2-yl)acetamide], the efflux ratio at 2 h in the data set with P-gp (MDR1) (setting [4]) is 23.3. The 50% inhibitory concentration (IC50) in data set [1] (setting [5]) stood at 24 nM; in data set [3], 2 nM. Further, in data set [2] (setting [6]), the “RLM % Qh (%)” value came to 51%.
The like results for `CC(=O)Nc1ncc(CN2C[C@@H](Oc3ccc(C)nc3)C[C@H]2C)s1` (stereo in doubt) [Example 1-116, N-(5-(((2R,4S)-2-methyl-4-((6-methylpyridin-3-yl)oxy)pyrrolidin-1-yl)methyl)thiazol-2-yl)acetamide] were, in that order, 19.6, 1 nM, < 1 nM and 55%.
The matching figures for `COc1cc(O[C@@H]2C[C@H](C)N(Cc3cnc(NC(C)=O)s3)C2)ncn1` [Example 1-1, N-(5-(((2S,4R)-4-((6-methoxypyrimidin-4-yl)oxy)-2-methylpyrrolidin-1-yl)methyl)thiazol-2-yl)acetamide]: 4.8, 2 nM, < 1 nM and 31%.
As for `CC(=O)Nc1ncc(CN2CCC[C@H](Oc3ccc(F)cn3)C2)s1` [Example 1-2, (S)—N-(5-((3-((5-fluoropyridin-2-yl)oxy)piperidin-1-yl)methyl)thiazol-2-yl)acetamide], the efflux ratio at 2 h in the data set with P-gp (MDR1) (setting [4]) came out at 2.3; in the data set on P-gp (MDR1) (setting [7]), 2.1. The IC50 amounted to 35 nM in data set [1] (setting [5]) and 210 nM in data set [3]. For the same molecule, the “RLM % Qh (%)” value in data set [2] (setting [6]) worked out at 86%.
As for `CC(=O)Nc1ncc(CN2CCC[C@@H](Oc3ccc(F)cn3)C2)s1` [Example 1-3, (R)—N-(5-((3-((5-fluoropyridin-2-yl)oxy)piperidin-1-yl)methyl)thiazol-2-yl)acetamide], the efflux ratio at 2 h with P-gp (MDR1) (setting [4]) came to 2.3; with P-gp (MDR1) (setting [7]), 2.2. The IC50 in data set [1] (setting [5]) was found to be 38 nM; in data set [3], 140 nM. Moreover, in data set [2] (setting [6]), the “RLM % Qh (%)” value was 82%.
On to `CC(=O)Nc1ncc(CN2CC[C@@H](Oc3ccc(F)cn3)C2)s1` [Example 1-6, (R)—N-(5-((3-((5-fluoropyridin-2-yl)oxy)pyrrolidin-1-yl)methyl)thiazol-2-yl)acetamide], for which the efflux ratio at 2 h in the data set on P-gp (MDR1) (setting [4]) is 1.7. Besides, the figures for the half-maximal inhibitory concentration (IC50) in data set [1] (setting [5]) and in data set [3] were 37 nM and 80 nM, respectively. Also, the “RLM % Qh (%)” value in data set [2] (setting [6]) stood at 40%.
The matching figures for `CC(=O)Nc1ncc(CN2C[C@@H](Oc3ccc(F)cn3)C[C@H]2C)s1` [Example 1-8, N-(5-(((2R,4S)-4-((5-fluoropyridin-2-yl)oxy)-2-methylpyrrolidin-1-yl)methyl)thiazol-2-yl)acetamide]: 2.3, > 1000 nM, 460 nM and 76%.
For `CC(=O)Nc1ncc(CN2C[C@@H](Oc3ccc(F)cn3)C[C@@H]2C)s1` [Example 1-9, N-(5-(((2S,4S)-4-((5-fluoropyridin-2-yl)oxy)-2-methylpyrrolidin-1-yl)methyl)thiazol-2-yl)acetamide], in the data set with P-gp (MDR1) (setting [4]), the efflux ratio at 2 h amounted to 1.9. Besides, the values for the IC50 in data set [1] (setting [5]) and in data set [3] were 32 nM and 39 nM, respectively. The “RLM % Qh (%)” value in data set [2] (setting [6]) was 87%.
The like results for `CC(=O)Nc1ncc(CN2C[C@H](Oc3ccc(F)cn3)C[C@H]2C)s1` [Example 1-10, N-(5-(((2R,4R)-4-((5-fluoropyridin-2-yl)oxy)-2-methylpyrrolidin-1-yl)methyl)thiazol-2-yl)acetamide] were, in that order, 1.9, 115 nM, 28 nM and 76%.
For the molecule `CC(=O)Nc1ncc(CN2C[C@H](Oc3ccc(F)cn3)C[C@@H]2C)s1` [Example 1-11, N-(5-(((2S,4R)-4-((5-fluoropyridin-2-yl)oxy)-2-methylpyrrolidin-1-yl)methyl)thiazol-2-yl)acetamide], the efflux ratio at 2 h with P-gp (MDR1) (setting [4]) came to 1.1; in the data set on P-gp (MDR1) (setting [7]) it was 1.9. Further, the values for the 50% inhibitory concentration (IC50) in data set [1] (setting [5]) and in data set [3] were 3 nM and < 1 nM, respectively. Moreover, in data set [2] (setting [6]), the “RLM % Qh (%)” value was 73%.
With `COc1cncc(O[C@@H]2C[C@H](C)N(Cc3cnc(NC(C)=O)s3)C2)n1` [Example 1-12, N-(5-(((2S,4R)-4-((6-methoxypyrazin-2-yl)oxy)-2-methylpyrrolidin-1-yl)methyl)thiazol-2-yl)acetamide], the results for the efflux ratio at 2 h with P-gp (MDR1) (setting [4]) and in the data set on P-gp (MDR1) (setting [7]) were 10 and 8.9, respectively. For the same molecule, the half-maximal inhibitory concentration (IC50) in data set [1] (setting [5]) is 3 nM; in data set [1] (setting [8]) it was 2 nM; in data set [3], < 1 nM. Also, the entries for the “RLM % Qh (%)” value in data set [2] (setting [6]) and in data set [2] (setting [8]) were 97% and 98* %, respectively.
Take `CC(=O)Nc1ncc(CN2C[C@H](Oc3ccc(C(F)F)cn3)C[C@@H]2C)s1` [Example 1-13, N-(5-(((2S,4R)-4-((5-(difluoromethyl)pyridin-2-yl)oxy)-2-methylpyrrolidin-1-yl)methyl)thiazol-2-yl)acetamide]: the efflux ratio at 2 h in the data set with P-gp (MDR1) (setting [4]) was found to be 2.4. Further, the IC50 stood at 2 nM in data set [1] (setting [5]) and 1.1 nM in data set [3]. In addition, the “RLM % Qh (%)” value in data set [2] (setting [6]) is 90%.
`CC(=O)Nc1ncc(CN2C[C@H](Oc3ccccn3)C[C@@H]2C)s1` [Example 1-14, N-(5-(((2S,4R)-2-methyl-4-(pyridin-2-yloxy)pyrrolidin-1-yl)methyl)thiazol-2-yl)acetamide]: the efflux ratio at 2 h with P-gp (MDR1) (setting [4]) came out at 2.9. The half-maximal inhibitory concentration (IC50) in data set [1] (setting [5]) amounted to 5 nM; in data set [3], 1.3 nM. Moreover, the “RLM % Qh (%)” value in data set [2] (setting [6]) amounted to 68%.
The matching figures for `CC(=O)Nc1ncc(CN2C[C@H](Oc3ccc(F)c(C)n3)C[C@@H]2C)s1` [Example 1-15, N-(5-(((2S,4R)-4-((5-fluoro-6-methylpyridin-2-yl)oxy)-2-methylpyrrolidin-1-yl)methyl)thiazol-2-yl)acetamide]: 2.2, 2 nM, < 1 nM and 95%.
On to `CC(=O)Nc1ncc(CN2C[C@H](Oc3ccc(C#N)cn3)C[C@@H]2C)s1` [Example 1-16, N-(5-(((2S,4R)-4-((5-cyanopyridin-2-yl)oxy)-2-methylpyrrolidin-1-yl)methyl)thiazol-2-yl)acetamide], for which the efflux ratio at 2 h in the data set on P-gp (MDR1) (setting [4]) worked out at 9.7. Also, the IC50 in data set [1] (setting [5]) is 1 nM; in data set [3], < 1 nM. Also, the “RLM % Qh (%)” value in data set [2] (setting [6]) was 50%; in data set [2] (setting [8]) it was 51* %.
As for `CC(=O)Nc1ncc(CN2C[C@H](Oc3cnc(Cl)cc3C)C[C@@H]2C)s1` [Example 1-17, N-(5-(((2S,4R)-4-((6-chloro-4-methylpyridin-3-yl)oxy)-2-methylpyrrolidin-1-yl)methyl)thiazol-2-yl)acetamide], the results for the efflux ratio at 2 h with P-gp (MDR1) (setting [4]) and in the data set on P-gp (MDR1) (setting [7]) were 12 and 12.4, respectively. The results for the IC50 in data set [1] (setting [5]) and in data set [3] were 2 nM and < 1 nM, respectively. In addition, in data set [2] (setting [6]), the “RLM % Qh (%)” value is reported as 88%.
Consider `CC(=O)Nc1ncc(CN2C[C@H](Oc3cc(C(F)F)ncn3)C[C@@H]2C)s1` [Example 1-18, N-(5-(((2S,4R)-4-((6-(difluoromethyl)pyrimidin-4-yl)oxy)-2-methylpyrrolidin-1-yl)methyl)thiazol-2-yl)acetamide], for which the efflux ratio at 2 h in the data set with P-gp (MDR1) (setting [4]) was found to be 11.7. In addition, the concentration for half-maximal inhibition (IC50) in data set [1] (setting [5]) was 12 nM; in data set [3], 2.4 nM. Besides, in data set [2] (setting [6]), the “RLM % Qh (%)” value worked out at 48%.
